These results are taken from patent US10465005B2, “JAML specific binding agents, antibodies, and uses related thereto” (Emory University, priority 2011, dated 2019).

One test has as its system T84 monolayers. Put plainly: Epithelial barrier recovery after calcium switch (TER, dextran flux). The class given is cell-based, human. The conditions noted are these: 30 μg/ml, 20 m/ml, up to 24 hours, FIG. 9A. As to the method:
T84 monolayers grown on permeable supports were subjected to transient calcium depletion by preincubation in Ca2+ free buffer (PBS) for 40 min to disassemble tight junctions, followed by switching back to calcium containing medium without (No Tx), or with sJAML or a control recombinant IgSF protein sSIRPa (30 μg/ml). Barrier recovery was measured as transepithelial resistance (TER) at time points as indicated.
FIG. 9B. Flux of fluorescently labeled dextran (3 k) was measured at the 24 h time point for conditions as described in panel A. N=4.
Since CAR plays a role in epithelial barrier, the effect of soluble JAML on epithelial barrier recovery was tested. Transepithelial resistance (TER) recovery experiments and dextran flux assay were performed with T84 cells grown in transwells (FIG. 9) as well as with Caco2 cells. […] As a negative control, a related soluble IgSF molecule SIRPalpha had no effect.

Another test has as its system PMN. Nature of the test: Surface JAML on PMN after activation (flow cytometry). The class given is cell-based, human. As to the method: Freshly isolated PMN, not treated (No Tx), or treated with either fMLF (100 nM) or PMA (200 nM) in suspension for 15 minutes at 37° c. were fixed with 1% paraformaldehyde, stained for JAML (DW100) and CD11b/CD18 (CBRM 1/29) and analyzed for surface expression by flow cytometry.
Since prior to transepithelial migration PMNs exit the blood vessels, whether JAML expression on PMNs would be preserved during migration across endothelial cells (HDMECs) towards a 10 μM fMLF, as described previously was evaluated. Indeed under similar conditions only a small portion of surface JAML was lost, but most of it was still detectable on PMN surface (FIG. 3B).
Thus whether PMN activation alone is sufficient to induce the loss of surface JAML or whether direct contact with the epithelium is required was examined. To test this, the expression of JAML was analyzed on PMNs that were stimulated in suspension with fMLF (100 μM) and PMA (200 nM). PMNs were allowed to adhere to epithelial cells for 1 hour. The loss of JAML could be correlated to the degree of PMN activation. […] This was again confirmed by immunofluorescence (FIG. 4B). PMN adhesion to epithelium in the absence of proinflamatory stimulus (as measured by flow cytometry, gating on Mac-1 positive PMNs) was also sufficient to induce a partial loss of surface JAML (FIG. 4C), in agreement with the small loss of surface JAML observed after migration through endothelial cells (FIG. 3B). […] Next, the observed loss of JAML during PMN activation may be due to its shedding from PMN surface and thus would be detectable in the supernatant of activated cells. To test this hypothesis, two antibodies, DW100 and DW216 that recognize two different epitopes of JAML were used in a sandwich ELISA assay to capture solubilized molecules in the supernatant of activated PMN.
On the technique in general: In flow cytometry, cells or beads pass a laser one at a time.

The target of test [1] is T1, CHO-JAML-His and CHO JAML-6xMyc (Homo sapiens, UniProt Q86YT9).
T1 construct: 6xMyc (cell line CHO JAML-6xMyc); expressed in transfected cells
T1 sequence (Q86YT9 20-394): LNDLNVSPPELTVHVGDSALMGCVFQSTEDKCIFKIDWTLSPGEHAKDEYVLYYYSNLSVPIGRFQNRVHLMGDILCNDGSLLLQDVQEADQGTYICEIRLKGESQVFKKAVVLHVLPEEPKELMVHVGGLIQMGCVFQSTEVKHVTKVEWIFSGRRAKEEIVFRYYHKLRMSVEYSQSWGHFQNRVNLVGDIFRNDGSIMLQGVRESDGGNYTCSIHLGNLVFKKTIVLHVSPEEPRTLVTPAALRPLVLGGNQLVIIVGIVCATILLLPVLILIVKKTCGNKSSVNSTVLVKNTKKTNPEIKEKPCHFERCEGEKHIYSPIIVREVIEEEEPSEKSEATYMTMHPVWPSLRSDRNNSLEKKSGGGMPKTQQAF
Nature of the test: FACS staining of stably transfected CHO-JAML cell lines. In kind it is binding. The conditions noted are these: FIG. 1A. From the text:
BALB/c mice were immunized with recombinant soluble fragment of JAML.D1D2 tagged with 10 His residues at the C-terminus (sJAML-His), generated in H293T cells and purified by Nickel chromatography. After the 4th boost, mice were given a final immunization and, 3 days later, spleen cells harvested and fused to the myeloma cell line P3U1. Hybridomas were selected in HAT medium and supernatants of clones were subjected to screening first to immobilized, soluble JAML and followed by staining of CHO-JAML stable transfectants. Three hybridomas were selected and antibodies were purified from ascites. FACS staining profiles of mAbs using two different, stably transfected CHO-JAML cell lines, CHO-JAML-His and CHO JAML-6xMyc, both membrane bound and tagged at the C-terminus with either 10-His or 6xMyc. Control antibody is 9E10 anti Myc.
These hybridomas were further tested for reactivity against tagged, full-length JAML expressed on the surface of cultured cells. CHO-JAML-6XMyc transfectants were aliquoted and pelleted into round bottom 96 well plates. 100 μl hybridoma supernatants were added for 1 hr at 4° C. Cells were washed and positive wells were identified by FACS analysis using Goat anti Mouse-AlexaFluor 488. Cells from positive wells were cloned by limiting dilution at one cell per well and expanded first in DMEM-10% FBS containing HAT then in medium containing HT (ATCC) and later DMEM, 10% FBS. The cloned cells of interest were sent to Harlan Laboratories (Indianapolis, Ind.) for production of ascites. Antibodies were purified from ascitic fluid using proteinA-Sepharose (GE Healthcare) followed by dialysis against PBS. Aliquots were frozen at −80° C. Ig subclass of each antibody was determined by using the IsoStrip Mouse Monoclonal Antibody Isotyping Kit (Roche Applied Science). […]
Cells suspensions of adherent cells were prepared by trypsinization with Trypsin-EDTA (Sigma). […] After final washes, cells were analyzed using FACS Calibur. […] All samples were stained for JAML (DW100 mAb) and CD11b/CD18 (CBRM 1/29), and only CD11b/CD18 positive cells (PMNs) were analyzed for JAML expression.

A further test concerns the target T2, JAML binding with CAR (Homo sapiens, UniProt Q86YT9).
T2 construct: soluble JAMLD1D2 was truncated and tagged after residue Leucine259; made in house; host or cells: HEK293T (sJAML-His)
T2 sequence (Q86YT9 20-259): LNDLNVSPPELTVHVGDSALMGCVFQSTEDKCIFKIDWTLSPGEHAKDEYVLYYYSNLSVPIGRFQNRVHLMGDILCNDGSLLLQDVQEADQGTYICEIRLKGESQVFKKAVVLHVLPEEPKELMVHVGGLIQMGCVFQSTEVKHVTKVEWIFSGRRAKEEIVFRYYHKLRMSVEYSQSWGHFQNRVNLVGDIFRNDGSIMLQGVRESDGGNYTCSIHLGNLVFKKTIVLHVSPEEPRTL
Put plainly: CAR binding assay (ELISA, CAR-GST on immobilized sJAML-His). The conditions noted are these: CAR-GST 10 μg/ml on immobilized sJAML-His preincubated with antibody; FIG. 1C. As to the method:
FIG. 1C. CAR binding assay: sJAML-His was coated in Immulon II microtiter microtiter wells overnight, at 4° C. Microtiter wells were washed and blocked and 100 μl antibody solutions were added to wells for 1 hour RT. After washing, CAR-GST was added at 10 μg/ml for 1 hour RT, washed and the assay was developed with HRP conjugated goat anti GST followed by ABTS and OD measurement at 405 nm.
(§1) Because certain antibodies recognize the membrane distal domain of JAML, their ability to inhibit binding to CAR was tested. By ELISA, the levels of soluble CAR-GST bound to immobilized sJAML-His preincubated with anti JAML antibodies was measured. […] Thus, these antibodies recognize three different epitopes on JAML and that both DW100 and DW55 bind epitopes close to the JAML binding site. Using a cell aggregation assay, the possibility that DW100 could inhibit the binding of JAML to CAR expressed on the surface of cells was examined. […] This again confirms previously described JAML binding to CAR, as well as the specificity of DW100 (blocking) and DW216 (non-blocking) Abs to JAML.
On the technique in general: In an ELISA, binding on a coated surface is turned into a signal by an enzyme label.

The test system of test [2] is CHO-JAML and CHO-CAR cells. Nature of the test: CHO-JAML / CHO-CAR cell aggregation assay. In kind it is cell-based. The conditions noted are these: antibodies 30 μg/ml; 1 hour at 37° C.; FIG. 1D. As for the experimental part: FIG. 1D. CHO-K1 cells stably transfected with either JAML (CHO-JAML) or CAR (CHO-CAR) proteins were allowed to aggregate (1 hour at 37° C. on a shaker at 50 RPM) separately (1×10^6 cells/BSA coated 3 ml Petri dish), or as a mix (5×10^5 each cell type/dish), in the absence or presence of anti-JAML monoclonal antibodies DW100, DW55 and DW216 (30 μg/ml). The number of clusters (left) and the area of the clusters (right) were quantified in 7 randomly chosen fields using light microscopy. The results are representative of four independent experiments. CHO-CAR and CHO-JAML in mixed cultures formed large aggregates.
as §1

Entries after “also recorded” stand apart in the source; their conditions may differ.

Consider “SIRPalpha: control recombinant IgSF protein, related soluble IgSF molecule [reference compound]”, for which the “epithelial barrier recovery (TER) after calcium depletion” value in the test with T84 monolayers is “had no effect”.

Consider fMLF, for which the “JAML expression on PMN after fMLF” value in the test with PMN (10 μM fMLF) is reported as “no significant effect on JAML expression”. Also, the “surface JAML on PMN after fMLF” value in the test on PMN (100 μM fMLF, FIG. 4A as described in Example 4) is listed as “partial but significant loss of JAML”; with PMN (fMLF 100 nM, suspension, 15 minutes at 37° c., FIG. 4A) it was “partial loss of JAML”.

B1: DW55: monoclonal anti-human JAML antibody (IgG2b,κ); VH SEQ ID NO:20, VL SEQ ID NO:23 (antibody, V domains shown)
VH: CDVQLVESGGGLVQPGGSRKLSCAASGFTFSDYGMAWVRQAPGKGPEWVAFISNLAYSIYYSDTVTGRFTISRENAKNTLYLEMSSLRSEDTAMYYCARGDYSGGMMDYWGQGT
VL: VLTSQPASLAVSLGQRATISYRASKSVSTSGYSYMHWNQQKPGQPPRLLIYLVSNLESGVPARFSGSGSGTDFTLNIHPVEEEDAATYYCQHIRELTRSEGGPSWK
As to B1, the “FACS staining of CHO-JAML transfectant lines” value in test [1] was “stained both transfectant lines equally well”. Further, the “inhibition of CAR binding to JAML” value with JAML binding with CAR is recorded as “inhibit human JAML binding with CAR; also recorded: partially inhibited binding; also recorded: partly inhibitory”.

B2: soluble CAR: purified extracellular domain of CAR that was tagged with GST (protein)
chain: LSITTPEEMIEKAKGETAYLPCKFTLSPEDQGPLDIEWLISPADNQKVDQVIILYSGDKIYDDYYPDLKGRVHFTSNDLKSGDASINVTNLQLSDIGTYQCKVKKAPGVANKKIHLVVLVKPSGARCYVDGSEEIGSDFKIKCEPKEGSLPLQYEWQKLSDSQKMPTSWLAEMTSSVISVKNASSEYSGTYSCTVRNRVGSDQCLLRLNVVPPSNKAG
modifications: left off: a dimerising Fc or GST
In the case of B2, in test [2], the “aggregation of mixed CHO-CAR and CHO-JAML cultures (number and size of clusters)” value is “blocked”.
